From patent US20100249175A1, “Dicationic compounds which selectively recognize G-quadruplex DNA” (priority 2005, published 2010)
pIC50: −log10 of the molar value.

How the values were obtained:
[1] = test system: human telomeric sequence d[AG3(T2AG3)3] (SEQ ID NO: 1); experiment: Surface plasmon resonance, immobilized human telomeric DNA; format: binding
Experimental: (§1) Surface plasmon resonance (SPR) measurements were performed with a four-channel Biacore® 3000 optical biosensor system (Biacore International AB, Uppsala, Sweden). 5′-biotin labeled DNA was immobilized onto streptavidin-coated Biacore® SA sensor chips as previously described. See Lacy, E. R., et al., J. Amer. Chem. Soc., 124, 2153-2163 (2002); Mazur, S., et al., J. Mol. Biol., 300, 321-337 (2000); Nguyen, B., et al., Biopolymers, 63, 281-297 (2002); Wang, L., et at, Proc. Natl. Acad. Sci. USA, 97, 12-16 (2000); and Wang, L., et al., Biochemistry, 40, 2511-2521 (2001). Two flow cells were used to immobilize the
DNA oligomer samples, while a third cell was left blank as a control. The SPR studies were performed at 25° C. in a filtered, degassed, 10 mM HEPES buffer (pH 7.4) containing 200 mM KCl, 3 mM EDTA and 0.005% surfactant P20 (Biacore International AB). Compound solutions were prepared by serial dilutions from stock solution and injected from 7-mm plastic vials with pierceable plastic crimp caps.
Solutions of known concentration of 8 ranging from 2 nM to 10 μM were injected through the flow cells until a constant steady-state response was obtained. […] The instrument response (RU) in the steady-state region was determined by linear averaging over a 50 second time span. The predicted maximum response per bound compound in the steady-state region (RUmax) was determined from the DNA molecular weight, the amount of DNA on the flow cell, the compound molecular weight, and the refractive index gradient ratio of the compound and DNA, as previously described. […] To obtain the binding constants, the data were fitted to a two-site equilibrium model using KaleidaGraph (Synergy Software, Reading, Pa., United States of America) for nonlinear least square optimization of the binding parameters, where RUmax is the maximum response per bound compound and K1 and K2 are the macroscopic binding constants for a two-site binding model: […]
(§2) Surface plasmon resonance (SPR) was used to quantitatively evaluate the interaction between 8 and human telomeric DNA. […]

[2] = test system: Trypanosoma brucei rhodesiense (T. b. r.); experiment: In vitro antiprotozoal activity against T. b. r.; format: cell-based
Experimental: (§3) In vitro antiprotozoal activities were measured following established protocols. […] E., et al., Bioorg.

[3] = test system: Plasmodium falciparum (P. f.); experiment: In vitro antiprotozoal activity against P. f.; format: cell-based; settings: in vitro, read-out: P.f. (IC50)
Experimental: as §3

[4] = molecular target: duplex hairpin d[[…]] (SEQ ID NO: 8); experiment: Surface plasmon resonance, immobilized duplex hairpin DNA; format: binding; settings: SPR, 25° C., HEPES buffer containing 200 mM KCl
Experimental: as §1
DNA oligomer samples, while a third cell was left blank as a control. […]
Solutions of known concentration of 8 ranging from 2 nM to 10 μM were injected through the flow cells until a constant steady-state response was obtained. […] The instrument response (RU) in the steady-state region was determined by linear averaging over a 50 second time span. The predicted maximum response per bound compound in the steady-state region (RUmax) was determined from the DNA molecular weight, the amount of DNA on the flow cell, the compound molecular weight, and the refractive index gradient ratio of the compound and DNA, as previously described. […]
as §2

[5] = test system: d[TGGGGT] (SEQ ID NO: 13); experiment: CD titration with d[TGGGGT]; format: binding; settings: 50 mM KCl, 10 mM K2HPO4, 0.1 mM EDTA, pH 7.0
Source text: The oligonucleotides d[AG3(T2AG3)3] (SEQ ID NO: 1), d[AG3TG4AG3TG4A] (SEQ ID NO: 2), d[G4(T4G4)3] (SEQ ID NO: 3), d[(T2G4)4] (SEQ ID NO: 4), d[(GC)7] (SEQ ID NO: 5), d[[…]] (SEQ ID NO: 6), d[G2T2G2TGTG2T2G2] (SEQ ID NO: 7), d[[…]] (SEQ ID NO: 8), d[[…]] (SEQ ID NO: 9), d[[…]] (SEQ ID NO: 10), d[[…]] (SEQ ID NO: 11), d[TTAGGGT] (SEQ ID NO: 12), and d[TGGGGT] (SEQ ID NO: 13) were purchased with HPLC purification from Midland Certified Reagent Company (The Midland Certified Reagent Company, Inc., Midland, Tex., USA). The concentration of each DNA sample was determined spectrophotometrically at 260 nm using the nearest neighbor extinction coefficient.
Stock solutions of individual dicationic polyaryl compounds were prepared in double distilled water and diluted to working concentrations immediately before use with buffer. […] Absorbance spectra were obtained on a Varian Cary 300 BIO UV-visible spectrophotometer (Varian, Inc., Palo Alto, Calif., United States of America) in a quartz cell with a 1 cm pathlength. CD spectra were recorded using a Jasco J-810 spectrapolarimeter (Jasco, Inc., Easton, Md., United States of America) in a 1-cm cell using an instrument scanning speed of 50 nm/min with a response time of 1 s. The spectra were averaged over four scans. A buffer baseline scan was collected in the same cuvette and subtracted from the average scan for each sample. […]

[6] = SPR, 25° C., HEPES buffer containing 200 mM KCl

N=C(N)c1ccc(-c2ccc(-c3ccc(C(=N)N)o3)o2)cc1 [Compound 8, 5′-(4-Amidinophenyl)-2,2′-bifuran-5-carboxamidine]
selectivity for the human telomeric quadruplex over the duplex DNA ([1]; SPR binding constants): approximately 4 fold
K1, macroscopic binding constant, two-site model [1, 6]: 470000 M⁻¹
K2, macroscopic binding constant, two-site model [1, 6]: 45000 M⁻¹
pIC50 [2]: 7.92
pIC50 [3]: 7.38
K, binding constant for the single site [4]: 130000 M⁻¹
induced CD / exciton splitting (in words) [5]: does not show any induced CD or exciton splitting
